Data published in ChEMBL document CHEMBL1909046, “DrugMatrix in vitro pharmacology data”.

Tests used:
[1] = molecular target: cGMP-specific 3',5'-cyclic phosphodiesterase (Homo sapiens, UniProt O76074); experiment: DRUGMATRIX: Phosphodiesterase PDE5 enzyme inhibition (substrate: [3H]cGMP + cGMP); format: tissue-based, Platelet; details: platelet; Not Active = under 50% inhibition at 10 µM
[2] = DRUGMATRIX: ATPase, Na+/K+ enzyme inhibition (substrate: ATP); format: tissue-based, Sus scrofa, Heart; details: Not Active = under 50% inhibition at 10 µM
Cathepsin G = molecular target: T1, Cathepsin G (Homo sapiens, UniProt P08311); format: tissue-based; details: neutrophil;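 note: inhibition of Cathepsin G enzyme activity, tested on an AMC-conjugated peptide substrate; in other assays of this panel Not Active means under 50% inhibition at 10 µM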
T1 sequence (P08311 whole entry): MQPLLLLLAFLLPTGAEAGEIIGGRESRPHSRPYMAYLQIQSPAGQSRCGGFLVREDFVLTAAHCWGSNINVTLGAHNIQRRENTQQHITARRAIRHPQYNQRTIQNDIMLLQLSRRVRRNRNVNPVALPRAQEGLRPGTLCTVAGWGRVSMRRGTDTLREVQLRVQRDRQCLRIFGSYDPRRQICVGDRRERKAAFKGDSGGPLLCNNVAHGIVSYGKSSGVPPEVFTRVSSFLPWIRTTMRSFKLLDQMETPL

[3] = molecular target: T2, Alpha-1A adrenergic receptor (Rattus norvegicus, UniProt P43140); experiment: DRUGMATRIX: Alpha-1A adrenergic receptor radioligand binding (ligand: prazosin); format: cell membranes, Wistar, Submaxillary gland, Membrane; details: Not Active = under 50% inhibition at 10 µM
T2 sequence (P43140 whole entry): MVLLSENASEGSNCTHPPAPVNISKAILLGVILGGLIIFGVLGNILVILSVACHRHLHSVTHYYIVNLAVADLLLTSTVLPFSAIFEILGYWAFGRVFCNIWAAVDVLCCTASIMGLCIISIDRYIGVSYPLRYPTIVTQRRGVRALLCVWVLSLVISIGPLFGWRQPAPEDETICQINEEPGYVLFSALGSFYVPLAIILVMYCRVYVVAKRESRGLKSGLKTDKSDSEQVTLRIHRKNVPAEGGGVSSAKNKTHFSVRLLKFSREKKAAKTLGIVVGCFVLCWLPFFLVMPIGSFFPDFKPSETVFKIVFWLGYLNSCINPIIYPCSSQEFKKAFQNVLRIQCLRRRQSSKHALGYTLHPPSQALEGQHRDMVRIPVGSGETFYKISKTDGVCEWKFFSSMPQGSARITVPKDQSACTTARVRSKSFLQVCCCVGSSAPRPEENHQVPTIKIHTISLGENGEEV

[4] = molecular target: Tyrosine-protein kinase Fyn (Homo sapiens, UniProt P06241); experiment: biochemical; format: cell-based, Insect cells; details: insect cells;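 note: enzymatic inhibition of Fyn kinase activity measured with Poly(Glu:Tyr) as the phosphorylation substrate; in other assays of this panel Not Active means under 50% inhibition at 10 µM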
Tyrosine-protein kinase Fyn, sequence (P06241 whole entry): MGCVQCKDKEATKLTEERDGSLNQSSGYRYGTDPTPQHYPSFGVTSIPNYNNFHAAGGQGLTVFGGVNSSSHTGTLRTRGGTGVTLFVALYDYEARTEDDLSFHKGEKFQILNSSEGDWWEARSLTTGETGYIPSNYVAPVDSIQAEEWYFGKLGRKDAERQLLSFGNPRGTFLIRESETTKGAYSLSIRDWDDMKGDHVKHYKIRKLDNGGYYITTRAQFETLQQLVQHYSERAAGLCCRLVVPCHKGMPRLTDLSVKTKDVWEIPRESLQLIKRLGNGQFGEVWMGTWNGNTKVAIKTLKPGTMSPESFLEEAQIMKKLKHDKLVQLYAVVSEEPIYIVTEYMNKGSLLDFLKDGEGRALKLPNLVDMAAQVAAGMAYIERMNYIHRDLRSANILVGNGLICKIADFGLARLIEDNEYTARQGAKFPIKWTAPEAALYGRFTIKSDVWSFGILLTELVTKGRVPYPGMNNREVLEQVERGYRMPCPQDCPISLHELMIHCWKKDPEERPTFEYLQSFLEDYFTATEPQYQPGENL

[5] = DRUGMATRIX: beta-Lactamase enzyme inhibition (substrate: Nitrocefin); parameters: species or system Bacillus cereus; details: Not Active = under 50% inhibition at 10 µM
Histamine H2 receptor = Histamine H2 receptor (Homo sapiens, UniProt P25021); format: cell membranes, CHO-K1, Membrane; details: cho-k1; note: in other assays of this panel Not Active means under 50% inhibition at 10 µM
Histamine H2 receptor, sequence (P25021 whole entry): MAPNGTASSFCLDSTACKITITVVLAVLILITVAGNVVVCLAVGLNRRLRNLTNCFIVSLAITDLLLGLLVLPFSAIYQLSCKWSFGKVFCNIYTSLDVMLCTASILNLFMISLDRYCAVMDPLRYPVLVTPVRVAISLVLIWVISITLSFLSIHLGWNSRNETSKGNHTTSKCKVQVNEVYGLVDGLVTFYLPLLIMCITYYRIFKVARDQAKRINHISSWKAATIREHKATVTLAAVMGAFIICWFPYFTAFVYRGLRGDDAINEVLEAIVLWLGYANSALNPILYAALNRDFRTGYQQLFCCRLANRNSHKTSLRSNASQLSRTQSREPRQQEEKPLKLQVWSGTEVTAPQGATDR

[6] = DRUGMATRIX: Calcium Channel Type L, Benzothiazepine radioligand binding (ligand: [3H] Diltiazem); format: cell membranes, Rattus norvegicus, Wistar, Brain, Membrane; details: Not Active = under 50% inhibition at 10 µM
[7] = molecular target: T3, 5-hydroxytryptamine receptor 1A (Rattus norvegicus, UniProt P19327); format: cell membranes, CHO-K1, Membrane; details: cho-k1; note: in other assays of this panel Not Active means under 50% inhibition at 10 µM
T3 sequence (P19327 whole entry): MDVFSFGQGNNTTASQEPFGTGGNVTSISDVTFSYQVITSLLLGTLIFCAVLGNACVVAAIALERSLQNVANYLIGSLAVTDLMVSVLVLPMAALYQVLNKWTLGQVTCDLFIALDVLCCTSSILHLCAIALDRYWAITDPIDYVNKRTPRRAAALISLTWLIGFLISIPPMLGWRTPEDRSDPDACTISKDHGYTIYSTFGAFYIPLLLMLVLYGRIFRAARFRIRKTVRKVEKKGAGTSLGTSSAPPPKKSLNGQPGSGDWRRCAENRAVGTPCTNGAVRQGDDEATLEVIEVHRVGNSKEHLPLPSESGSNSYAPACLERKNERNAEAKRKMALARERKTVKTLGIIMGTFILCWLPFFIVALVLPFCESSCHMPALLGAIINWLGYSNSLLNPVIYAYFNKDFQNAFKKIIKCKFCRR

[8] = molecular target: T4, Alpha-1D adrenergic receptor (Homo sapiens, UniProt P25100); format: cell membranes, HEK293, Membrane; details: hek293; note: in other assays of this panel Not Active means under 50% inhibition at 10 µM
T4 sequence (P25100 whole entry): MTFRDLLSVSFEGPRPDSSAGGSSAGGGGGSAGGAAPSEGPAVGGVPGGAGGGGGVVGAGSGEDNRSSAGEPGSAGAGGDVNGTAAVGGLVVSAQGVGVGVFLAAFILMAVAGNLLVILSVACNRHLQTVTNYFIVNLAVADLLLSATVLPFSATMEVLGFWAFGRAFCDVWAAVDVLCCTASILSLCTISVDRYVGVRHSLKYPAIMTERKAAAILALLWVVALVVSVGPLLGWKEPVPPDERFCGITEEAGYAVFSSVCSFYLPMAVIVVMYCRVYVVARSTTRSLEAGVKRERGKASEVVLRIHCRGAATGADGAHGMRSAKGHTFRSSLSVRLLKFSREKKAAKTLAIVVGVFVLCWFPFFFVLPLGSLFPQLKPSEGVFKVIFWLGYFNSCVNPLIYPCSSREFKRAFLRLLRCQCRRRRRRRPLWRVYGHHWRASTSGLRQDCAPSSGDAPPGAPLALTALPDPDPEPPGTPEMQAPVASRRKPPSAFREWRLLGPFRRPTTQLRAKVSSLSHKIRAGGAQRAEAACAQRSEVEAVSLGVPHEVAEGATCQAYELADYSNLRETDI

[9] = molecular target: C-C chemokine receptor type 5 (Homo sapiens, UniProt P51681); format: cell membranes, Membrane; details: hek293; note: in other assays of this panel Not Active means under 50% inhibition at 10 µM
C-C chemokine receptor type 5, sequence (P51681 whole entry): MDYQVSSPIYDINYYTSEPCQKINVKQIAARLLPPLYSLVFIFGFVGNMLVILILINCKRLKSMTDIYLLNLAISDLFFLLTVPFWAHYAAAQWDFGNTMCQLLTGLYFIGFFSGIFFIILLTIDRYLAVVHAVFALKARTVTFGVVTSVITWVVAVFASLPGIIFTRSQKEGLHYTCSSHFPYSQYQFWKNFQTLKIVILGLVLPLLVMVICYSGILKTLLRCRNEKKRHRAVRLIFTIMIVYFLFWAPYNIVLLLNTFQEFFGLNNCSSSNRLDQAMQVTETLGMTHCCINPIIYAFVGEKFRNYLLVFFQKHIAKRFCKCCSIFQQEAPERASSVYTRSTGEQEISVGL

[10] = molecular target: Sodium-dependent dopamine transporter (Homo sapiens, UniProt Q01959); experiment: DRUGMATRIX: Dopamine Transporter radioligand binding (ligand: [125I] RTI-55); format: cell membranes, CHO-K1, Membrane; details: Not Active = under 50% inhibition at 10 µM
Sodium-dependent dopamine transporter, sequence (Q01959 whole entry): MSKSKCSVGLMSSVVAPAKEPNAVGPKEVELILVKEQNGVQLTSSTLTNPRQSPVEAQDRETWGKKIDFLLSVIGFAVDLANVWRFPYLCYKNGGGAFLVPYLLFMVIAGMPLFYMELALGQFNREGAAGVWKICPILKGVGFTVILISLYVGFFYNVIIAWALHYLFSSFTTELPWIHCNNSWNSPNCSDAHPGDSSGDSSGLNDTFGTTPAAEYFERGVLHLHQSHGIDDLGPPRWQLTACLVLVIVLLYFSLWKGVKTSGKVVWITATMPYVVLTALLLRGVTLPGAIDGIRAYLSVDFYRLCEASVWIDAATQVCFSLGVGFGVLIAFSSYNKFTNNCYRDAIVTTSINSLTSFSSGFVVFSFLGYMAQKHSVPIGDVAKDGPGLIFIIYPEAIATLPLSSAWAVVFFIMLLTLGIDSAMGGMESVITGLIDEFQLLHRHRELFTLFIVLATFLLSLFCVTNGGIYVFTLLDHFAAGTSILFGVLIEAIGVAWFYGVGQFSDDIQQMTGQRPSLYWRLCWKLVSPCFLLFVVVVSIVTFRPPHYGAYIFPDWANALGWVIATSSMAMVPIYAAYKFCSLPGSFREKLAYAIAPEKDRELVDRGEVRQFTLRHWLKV

Vasopressin V1a receptor = Vasopressin V1a receptor (Homo sapiens, UniProt P37288); format: cell membranes, Membrane; details: hek293; note: in other assays of this panel Not Active means under 50% inhibition at 10 µM
Vasopressin V1a receptor, sequence (P37288 whole entry): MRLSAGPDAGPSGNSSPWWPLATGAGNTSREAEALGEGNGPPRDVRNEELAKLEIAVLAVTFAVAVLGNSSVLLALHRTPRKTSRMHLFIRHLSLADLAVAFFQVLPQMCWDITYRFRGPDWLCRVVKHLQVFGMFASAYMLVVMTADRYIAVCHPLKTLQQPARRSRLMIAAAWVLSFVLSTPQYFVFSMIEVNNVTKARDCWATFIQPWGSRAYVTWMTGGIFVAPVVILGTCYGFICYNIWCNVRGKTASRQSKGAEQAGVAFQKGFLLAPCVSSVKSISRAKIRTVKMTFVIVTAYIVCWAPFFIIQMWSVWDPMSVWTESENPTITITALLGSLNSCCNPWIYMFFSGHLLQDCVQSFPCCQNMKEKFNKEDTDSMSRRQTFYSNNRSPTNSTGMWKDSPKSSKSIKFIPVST

[11] = molecular target: Protein kinase C alpha type (Homo sapiens, UniProt P17252); format: cell-based; details: sf9

SMILES	IC50 [1]	IC50 [2]	Ki [2]	IC50 (Cathepsin G)	IC50 [3]	IC50 [4]	IC50 [5]	Ki [5]	IC50 (Histamine H2 receptor)	IC50 [6]	Ki [6]	IC50 [7]	IC50 [8]	IC50 [9]	IC50 ([10]; cho-k1)	IC50 (Vasopressin V1a receptor)	IC50 [11]	IC50 ([10]; read-out: IC50)	Ki ([10]; read-out: Ki)
CC(C)(S)[C@@H](N)C(=O)O [PENICILLAMINE]	Not Active	Not Active	Not Active	Not Active	Not Active	Not Active	Not Active	Not Active	Not Active	Not Active	Not Active	Not Active	Not Active	Not Active	Not Active	Not Active	Not Active		
CC(=O)CCCCn1c(=O)c2c(ncn2C)n(C)c1=O [PENTOXIFYLLINE]	Not Active	Not Active	Not Active	Not Active	Not Active	Not Active	Not Active	Not Active	Not Active	Not Active	Not Active	Not Active	Not Active	Not Active	Not Active	Not Active	Not Active		
O=C1NC(=O)C(c2ccccc2)(c2ccccc2)N1 [PHENYTOIN]	Not Active	Not Active	Not Active	Not Active	Not Active	Not Active	Not Active	Not Active	Not Active	Not Active	Not Active	Not Active	Not Active	Not Active	Not Active	Not Active	Not Active		
CNC(=O)Oc1ccc2c(c1)[C@]1(C)CCN(C)[C@@H]1N2C [PHYSOSTIGMINE]	Not Active	Not Active	Not Active	Not Active	Not Active	Not Active	Not Active	Not Active	Not Active	Not Active	Not Active	Not Active	Not Active	Not Active	Not Active	Not Active	Not Active		
C=C(C)[C@@H]1[C@H]2OC(=O)[C@@H]1[C@]1(O)C[C@H]3O[C@]34C(=O)O[C@H]2[C@]14C [PICROTOXININ]	Not Active	Not Active	Not Active	Not Active	Not Active	Not Active	Not Active	Not Active	Not Active	Not Active	Not Active	Not Active	Not Active	Not Active	Not Active	Not Active	Not Active		
CN1C(C(=O)Nc2ccccn2)=C(O)c2ccccc2S1(=O)=O [PIROXICAM]	Not Active	Not Active	Not Active	Not Active	Not Active	Not Active	Not Active	Not Active	Not Active	Not Active	Not Active	Not Active	Not Active	Not Active	Not Active	Not Active	Not Active		
CCC1(c2ccccc2)C(=O)NCNC1=O [PRIMIDONE]	Not Active	Not Active	Not Active	Not Active	Not Active	Not Active	Not Active	Not Active	Not Active	Not Active	Not Active	Not Active	Not Active	Not Active	Not Active	Not Active	Not Active		
CCCc1cc(=O)[nH]c(=S)[nH]1 [PROPYLTHIOURACIL]	Not Active	Not Active	Not Active	Not Active	Not Active	Not Active	Not Active	Not Active	Not Active	Not Active	Not Active	Not Active	Not Active	Not Active	Not Active	Not Active	Not Active		
COc1ccc(CN(CCN(C)C)c2ccccn2)cc1 [PYRILAMINE]	Not Active	Not Active	Not Active	Not Active	Not Active	Not Active	Not Active	Not Active	Not Active	Not Active	Not Active	Not Active	Not Active	Not Active		Not Active	Not Active	0.879 µM	0.699 µM
